# According to publication PMC4980783 (Chemistry Central Journal, 2016):
# Several values for one entry are separate records, joined by “and”; a condition that tells them apart may be missing. Identical values can stand only once. Like-named read-outs stand apart in the source and are kept apart here.
# Biological target: influenza virus NA (Influenza A virus, UniProt Q6DPL2)
# Type: biochemical
# Conditions: single replicates (3)
# Sequence of influenza virus NA (Q6DPL2 whole entry, looked up): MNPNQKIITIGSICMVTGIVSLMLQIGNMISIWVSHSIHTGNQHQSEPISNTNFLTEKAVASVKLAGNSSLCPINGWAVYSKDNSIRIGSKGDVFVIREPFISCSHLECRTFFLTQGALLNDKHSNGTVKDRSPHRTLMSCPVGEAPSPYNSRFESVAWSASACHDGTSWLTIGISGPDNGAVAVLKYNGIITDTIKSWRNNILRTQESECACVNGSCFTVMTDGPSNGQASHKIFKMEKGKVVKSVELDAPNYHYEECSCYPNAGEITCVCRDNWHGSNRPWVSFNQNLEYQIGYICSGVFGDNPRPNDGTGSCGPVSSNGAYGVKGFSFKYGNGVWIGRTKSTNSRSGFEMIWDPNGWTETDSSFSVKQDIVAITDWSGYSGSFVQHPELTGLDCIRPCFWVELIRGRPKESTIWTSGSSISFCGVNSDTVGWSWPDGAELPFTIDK
smiles,measurement,setting,value
"CC(=O)N[C@H]1[C@H]([C@H](O)[C@H](O)CO)OC(C(=O)O)=C[C@@H]1N=C(N)N [Zanamivir, zanamivir]",inhibition rates,first line per compound,100.00 and 99.40 and 99.96
same,inhibition rates,"second line per compound, presumably 5-fold diluted (Sheet1)",44.04 and 41.05
same,inhibition rates,third line per compound,17.05 and 17.04 and 19.04
